# Assay results published in patent US20100137313A1 (ASTRAZENECA AB, priority 2008, published 2010).
# Biological target: S. pneumoniae Topoisomerase IV ATPase (ParE) (Streptococcus pneumoniae serotype 4, UniProt Q59961)
# Assay: S. pneumoniae Topoisomerase IV ATPase inhibition
# Type: biochemical
# Conditions: values marked * are an average of two or more data points, read-out: % Inh (13 μM) of S. pneumoniae Topoisomerase IV ATPase
# In short: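 Phosphate release by ParE ATPase from S. pneumoniae read colorimetrically (malachite green, 650 nm), enzyme 1.25 nM, ATP 160 μM, salmon sperm DNA present, buffer 20 mM Tris pH 8.0 with 8 mM MgCl2. IC50 over 10 compound concentrations, EDTA (20 μM) and DMSO controls defining inhibition range.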
# Sequence of S. pneumoniae Topoisomerase IV ATPase (ParE) (Q59961 whole entry): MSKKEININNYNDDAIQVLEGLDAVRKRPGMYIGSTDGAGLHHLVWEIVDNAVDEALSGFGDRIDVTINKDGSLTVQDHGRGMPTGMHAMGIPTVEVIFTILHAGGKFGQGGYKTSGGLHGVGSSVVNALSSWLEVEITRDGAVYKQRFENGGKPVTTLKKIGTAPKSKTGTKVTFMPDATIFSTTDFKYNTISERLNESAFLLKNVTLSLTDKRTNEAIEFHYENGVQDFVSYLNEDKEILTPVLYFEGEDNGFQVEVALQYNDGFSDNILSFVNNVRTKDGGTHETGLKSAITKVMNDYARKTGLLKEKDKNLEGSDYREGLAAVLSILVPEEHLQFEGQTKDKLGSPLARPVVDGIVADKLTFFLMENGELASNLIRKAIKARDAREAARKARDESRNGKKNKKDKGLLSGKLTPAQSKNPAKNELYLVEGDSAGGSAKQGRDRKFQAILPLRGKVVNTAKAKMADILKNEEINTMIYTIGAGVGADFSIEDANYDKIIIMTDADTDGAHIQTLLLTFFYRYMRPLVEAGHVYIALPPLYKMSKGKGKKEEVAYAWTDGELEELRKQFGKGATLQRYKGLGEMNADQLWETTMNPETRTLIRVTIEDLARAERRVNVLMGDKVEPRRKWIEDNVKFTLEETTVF
row,SMILES,inhibition at 13 µM [%]
1,"O=C(O)c1cncc(-c2cnc(Nc3ccc(F)c(Cl)c3)nc2NCc2cccnc2)c1 [Example 223, 5-{2-(3-Chloro-4-fluoro-phenylamino)-4-[(pyridin-3-ylmethyl)-amino]-pyrimidin-5-yl}-nicotinic acid]",77.4
2,"O=C(O)c1cncc(-c2cnc(Nc3ccc(F)c(Cl)c3)nc2NCc2ccncc2)c1 [Example 224, 5-{2-(3-Chloro-4-fluoro-phenylamino)-4-[(pyridin-4-ylmethyl)-amino]-pyrimidin-5-yl}-nicotinic acid]",78.5
3,"CC(C)(C)OC(=O)NCCNc1nc(Nc2ccc(F)c(Cl)c2)ncc1-c1cncc(C(=O)O)c1 [Example 225, 5-[4-(2-tert-Butoxycarbonylamino-ethylamino)-2-(3-chloro-4-fluoro-phenylamino)-pyrimidin-5-yl]-nicotinic acid]",81.1
4,"NC(=O)CCNc1nc(Nc2ccc(F)c(Cl)c2)ncc1-c1cncc(C(=O)O)c1 [Example 226, 5-[4-(2-Carbamoyl-ethylamino)-2-(3-chloro-4-fluoro-phenylamino)-pyrimidin-5-yl]-nicotinic acid]",79.5
5,"O=C(O)c1cncc(-c2cnc(Nc3ccc(F)c(Cl)c3)nc2NCCN2CCOCC2)c1 [Example 227, 5-[2-(3-Chloro-4-fluoro-phenylamino)-4-(2-morpholin-4-yl-ethylamino)-pyrimidin-5-yl]-nicotinic acid]",79
6,"O=C(O)c1cncc(-c2cnc(Nc3ccc(F)c(Cl)c3)nc2NCCc2ccccn2)c1 [Example 228, 5-[2-(3-Chloro-4-fluoro-phenylamino)-4-(2-pyridin-2-yl-ethylamino)-pyrimidin-5-yl]-nicotinic acid]",78.5
7,"O=C(O)c1cncc(-c2cnc(Nc3ccc(F)c(Cl)c3)nc2NCCc2cccnc2)c1 [Example 229, 5-[2-(3-Chloro-4-fluoro-phenylamino)-4-(2-pyridin-3-yl-ethylamino)-pyrimidin-5-yl]-nicotinic acid]",85
8,"O=C(O)c1cncc(-c2cnc(Nc3ccc(F)c(Cl)c3)nc2NCCc2ccncc2)c1 [Example 230, 5-[2-(3-Chloro-4-fluoro-phenylamino)-4-(2-pyridin-4-yl-ethylamino)-pyrimidin-5-yl]-nicotinic acid]",79.6
9,"O=C(O)c1cncc(-c2cnc(Nc3ccc(F)c(Cl)c3)nc2NCCN2CCS(=O)(=O)CC2)c1 [Example 231, 5-{2-(3-Chloro-4-fluoro-phenylamino)-4-[2-(1,1-dioxo-1λ^6-thiomorpholin-4-yl)-ethylamino]-pyrimidin-5-yl}-nicotinic acid]",81.5
10,"O=C(O)c1cncc(-c2cnc(Nc3ccc(F)c(Cl)c3)nc2NCCCN2CCS(=O)(=O)CC2)c1 [Example 232, 5-{2-(3-Chloro-4-fluoro-phenylamino)-4-[3-(1,1-dioxo-1λ^6-thiomorpholin-4-yl)-propylamino]-pyrimidin-5-yl}-nicotinic acid]",81
11,"O=C(O)c1cncc(-c2cnc(Nc3ccc(F)c(Cl)c3)nc2NCCCN2CCOCC2)c1 [Example 233, 5-[2-[(3-chloro-4-fluorophenyl)amino]-4-(3-morpholin-4-ylpropylamino)pyrimidin-5-yl]pyridine-3-carboxylic acid]",75.4
12,"COCCNc1nc(Nc2ccc(F)c(Cl)c2)ncc1-c1cncc(C(=O)O)c1 [Example 234, 5-[2-[(3-chloro-4-fluorophenyl)amino]-4-(2-methoxyethylamino)-pyrimidin-5-yl]pyridine-3-carboxylic acid]",73.2
13,"O=C(O)c1cncc(-c2cnc(Nc3ccc(F)c(Cl)c3)nc2NCC2CCCO2)c1 (stereo not drawn) [Example 235, 5-[2-[(3-chloro-4-fluorophenyl)amino]-4-(oxolan-2-ylmethylamino)pyrimidin-5-yl]pyridine-3-carboxylic acid]",81.2
14,"CC(C)OCCNc1nc(Nc2ccc(F)c(Cl)c2)ncc1-c1cncc(C(=O)O)c1 [Example 236, 5-[2-[(3-chloro-4-fluorophenyl)amino]-4-(2-propan-2-yloxyethyolamino)pyrimidin-5-yl]pyridine-3-carboxylic acid]",73.6
15,"O=C(O)c1cncc(-c2cnc(Nc3ccc(F)c(Cl)c3)nc2NCc2ccco2)c1 [Example 237, 5-[2-[(3-chloro-4-fluorophenyl)amino]-4-(furan-2-ylmethylamino)pyrimidin-5-yl]pyridine-3-carboxylic acid]",85.4
16,"O=C(O)CNc1nc(Nc2ccc(F)c(Cl)c2)ncc1-c1cncc(C(=O)O)c1 [Example 238, 5-[4-(carboxymethylamino)-2-[(3-chloro-4-fluorophenyl)amino]-pyrimidin-5-yl]pyridine-3-carboxylic acid]",72.6
17,"O=C(O)c1cncc(-c2cnc(Nc3ccc(F)c(Cl)c3)nc2NCCOc2ccccc2)c1 [Example 239, 5-[2-[(3-chloro-4-fluorophenyl)amino]-4-(2-phenoxyethylamino)-pyrimidin-5-yl]pyridine-3-carboxylic acid]",85.1

row,SMILES,inhibition at 13 µM [%]
1,"C[C@@H](Nc1nc(Nc2ccc(F)c(Cl)c2)ncc1-c1cncc(C(=O)O)c1)C(=O)O [Example 240, 5-[2-[(3-chloro-4-fluorophenyl)amino]-4-[[(2R)-1-hydroxy-1-oxopropan-2-yl]amino]pyrimidin-5-yl]pyridine-3-carboxylic acid]",45.8
2,"O=C(O)c1cncc(-c2cnc(Nc3ccc(F)c(Cl)c3)nc2NCc2nc3ccccc3[nH]2)c1 [Example 241, 5-[4-(1H-benzimidazol-2-ylmethylamino)-2-[(3-chloro-4-fluorophenyl)amino]-pyrimidin-5-yl]pyridine-3-carboxylic acid]",71.5
3,"Cc1cnc(CNc2nc(Nc3ccc(F)c(Cl)c3)ncc2-c2cncc(C(=O)O)c2)cn1 [Example 242, 5-[2-[(3-chloro-4-fluorophenyl)amino]-4-[(5-methylpyrazin-2-yl)methylamino]pyrimidin-5-yl]pyridine-3-carboxylic acid]",61.3
4,"CC(C)Nc1nc(Nc2ccc(F)c(Cl)c2)ncc1-c1cncc(C(=O)O)c1 [Example 243, 5-[2-[(3-chloro-4-fluorophenyl)amino]-4-(propan-2-ylamino)pyrimidin-5-yl]pyridine-3-carboxylic acid]",83.5
5,"O=C(O)c1cncc(-c2cnc(Nc3ccc(F)c(Cl)c3)nc2N2CCC(O)CC2)c1 [Example 244, 5-[2-[(3-chloro-4-fluorophenyl)amino]-4-(4-hydroxypiperidin-1-yl)pyrimidin-5-yl]pyridine-3-carboxylic acid]",76.3
6,"O=C(O)c1cncc(-c2cnc(Nc3ccc(F)c(Cl)c3)nc2N2CCCC(CO)C2)c1 (stereo not drawn) [Example 245, 5-[2-[(3-chloro-4-fluorophenyl)amino]-4-[3-(hydroxymethyl)piper-idin-1-yl]pyrimidin-5-yl]pyridine-3-carboxylic acid]",83.1
7,"O=C(O)c1cncc(-c2cnc(Nc3ccc(F)c(Cl)c3)nc2N2CCC(N3CCOCC3)CC2)c1 [Example 246, 5-[2-[(3-chloro-4-fluorophenyl)amino]-4-(4-morpholin-4-ylpiperidin-1-yl)pyrimidin-5-yl]pyridine-3-carboxylic acid]",74.9
8,"CNC(=O)C1CCN(c2nc(Nc3ccc(F)c(Cl)c3)ncc2-c2cncc(C(=O)O)c2)CC1 [Example 247, 5-[2-[(3-chloro-4-fluoprophenyl)amino]-4-[4-(methylcarbamoyl)-piperidin-1-yl]pyrimidin-5-yl]pyridine-3-carboxylic acid]",42.2
9,"O=C(O)c1cncc(-c2cnc(Nc3ccc(F)c(Cl)c3)nc2N2CCC(F)CC2)c1 [Example 248, 5-[2-[(3-chloro-4-fluorophenyl)amino]-4-(4-fluoropiperidin-1-yl)pyrimidin-5-yl]pyridine-3-carboxylic acid]",66.1
10,"COC1CCN(c2nc(Nc3ccc(F)c(Cl)c3)ncc2-c2cncc(C(=O)O)c2)CC1 [Example 249, 5-[2-[(3-chloro-4-fluorophenyl)amino]-4-(4-methoxypiperidin-1-yl)pyrimidin-5-yl]pyridine-3-carboxylic acid]",70.8
11,"O=C(O)c1cncc(-c2cnc(Nc3ccc(F)c(Cl)c3)nc2N2CCC(O)C2)c1 (stereo not drawn) [Example 250, 5[2-[(3-chloro-4-fluorophenyl)amino]-4-(3-hydroxypyrrolidin-1-yl)pyrimidin-5-yl]pyridine-3-carboxylic acid]",74.4
12,"CC1CCCN1c1nc(Nc2ccc(F)c(Cl)c2)ncc1-c1cncc(C(=O)O)c1 (stereo not drawn) [Example 251, 5-[2-[(3-chloro-4-fluorophenyl)amino]-4-(2-methylpyrrolidin-1-yl)pyrimidin-5-yl]pyridine-3-carboxylic acid]",79.9
13,"CC1CCC(C)N1c1nc(Nc2ccc(F)c(Cl)c2)ncc1-c1cncc(C(=O)O)c1 (stereo not drawn) [Example 252, 5-[2-[(3-chloro-4-fluorophenyl)amino]-4-(2,5-dimethylpyrrolidin-1-yl)pyrimidin-5-yl]pyridine-3-carboxylic acid]",81.8
14,"O=C(O)c1cncc(-c2cnc(Nc3ccc(F)c(Cl)c3)nc2N2CCC2)c1 [Example 253, 5-[4-(azetidin-1-yl)-2-[(3-chloro-4-fluorophenyl)amino]-pyrimidin-5-yl]pyridine-3-carboxylic acid]",75.1
15,"O=C(O)c1cncc(-c2cnc(Nc3ccc(F)c(Cl)c3)nc2N2CCCCCC2)c1 [Example 254, 5-[4-(azepan-1-yl)-2-[(3-chloro-4-fluorophenyl)amino]-pyrimidin-5-yl]pyridine-3-carboxylic acid]",16.8
16,"O=C(O)c1cncc(-c2cnc(Nc3ccc(F)c(Cl)c3)nc2N[C@H]2CC[C@H](O)CC2)c1 [Example 255, 5-[2-[(3-chloro-4-fluorophenyl)amino]-4-[(4-hydroxycyclohexyl)-amino]pyrimidin-5-yl]pyridine-3-carboxylic acid]",72.8
